Here are results for 11 compounds from PMC10060280, “The influence of cyclooxygenase inhibitors on kynurenic acid production in rat kidney: a novel path for kidney protection?” (Pharmacological Reports, 2023).

Where a name gives a salt, the structure may show the parent alone. Read-outs that look alike come from different tables or passages of the source. Some results are limits rather than exact numbers.

For one test, the target named is T1, KAT I (Rattus norvegicus, UniProt Q08415).
T1 construct: kidneys were homogenized in dialysate buffer (1:9; w/v); from tissue; host or cells: rat kidney (dialyzed supernatant of homogenate)
T1 sequence (Q08415 1-423): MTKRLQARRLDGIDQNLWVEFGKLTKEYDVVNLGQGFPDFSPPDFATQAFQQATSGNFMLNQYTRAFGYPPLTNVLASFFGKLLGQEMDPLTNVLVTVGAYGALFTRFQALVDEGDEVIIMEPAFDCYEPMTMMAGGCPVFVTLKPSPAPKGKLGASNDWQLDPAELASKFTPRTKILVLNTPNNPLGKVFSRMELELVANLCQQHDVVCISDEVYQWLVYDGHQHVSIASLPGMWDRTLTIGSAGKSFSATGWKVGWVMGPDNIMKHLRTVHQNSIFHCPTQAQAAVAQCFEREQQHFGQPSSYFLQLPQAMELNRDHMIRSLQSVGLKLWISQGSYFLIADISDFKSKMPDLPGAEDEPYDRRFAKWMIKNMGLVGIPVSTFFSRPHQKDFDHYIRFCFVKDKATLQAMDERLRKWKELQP
Description: KAT I activity in rat kidney in vitro. To be noted: 2 µM L-KYN; for IC50: read-out: IC50 of KAT I inhibition; for effect on KAT I activity: 1 μM-1 mM drug. The format is biochemical. The method, then: (§1) KAT I and KAT II activity in rat kidneys in vitro was analyzed based on procedures previously presented in a study by Gramsbergen et al.. […] The homogenate was centrifuged (15,133×g, 15 min) and then collected supernatant was dialyzed against 4 L of the dialysate buffer for 12 h at 8 °C with the use of cellulose membrane dialysis tubing. […] L-KYN concentration used in this analysis was equal to plasma KYN concentration, as reported by […] et al., and was sufficient to obtain appropriate enzymatic activity. The optimal pH was set at 9.5 and 7.0 for KAT I or KAT II activity analysis, respectively. Glutamine (2 mM), a KAT I inhibitor, was added to samples to measure KAT II's activity. The reaction was terminated by moving all samples into the ice-cold bath. Finally, all samples were centrifuged and analyzed by HPLC, as described in the previous section. […] To analyze KAT's activity, kidneys from 14 rats were used. Presented data are shown as mean ± standard deviation (SD). The one-way analysis of variance (one-way ANOVA) followed by Tukey's multiple comparison test was applied to analyze differences between tested COX inhibitors. The half-maximal inhibitory concentrations values (IC50) were assessed by fitting the experimental data to a four-parameter logistic equation. Statistical analyses were done with the use of GraphPad Prism 6. Values of p < 0.05 were considered to be statistically significant.

The next test addresses T2, KAT II (Rattus norvegicus, UniProt Q64602).
T2 construct: kidneys were homogenized in dialysate buffer (1:9; w/v); from tissue; host or cells: rat kidney (dialyzed supernatant of homogenate)
Nature of the test: KAT II activity in rat kidney in vitro. The format is biochemical. The settings on record: 2 µM L-KYN; for IC50: pH 7.0, 2 mM glutamine, read-out: IC50 of KAT II inhibition. The method, then:
as §1

Test [1] deals with KYNA production in rat kidney. Nature of the test: KYNA synthesis in rat kidney homogenate in vitro. To be noted: 10 μM L-KYN; for IC50: 2 h, 37 °C, read-out: IC50 of KYNA production inhibition. The format is biochemical. The method, then:
In the first step, after the animals were decapitated, rat kidneys were harvested and immediately put on ice. Afterward whole kidneys were weighed and homogenized in prepared oxygenated Krebs–Ringer buffer at pH 7.4 (1:4; w/v). 100 µL of kidney homogenate was put into test tubes, pre-filled with oxygenated Krebs–Ringer buffer (containing 800 μL in every tube). […] At least six independent kidney samples were used for each experiment in this part of the study. Control samples, instead of the drug solution, contained an equal volume of a drug solvent (50 µL of DMSO or water). The reaction was stopped by adding 1 N HCl (100 μL per sample) on ice. […] Tissues from 14 animals were used in this part of the study. Presented data are shown as mean ± standard deviation (SD). The one-way analysis of variance (one-way ANOVA) followed by Tukey’s multiple comparison test was applied to analyze differences between tested COX inhibitors. The half-maximal inhibitory concentrations values (IC50) were assessed by fitting the experimental data to a four-parameter logistic equation. Statistical analyses were done with the use of GraphPad Prism 6. Values of p < 0.05 were considered to be statistically significant.

In a further test the test system is serum KYNA concentration. Details: method as in PMID 36271950. To be noted: 20 healthy volunteers, acute administration, 5 h after drug administration; cited from earlier work.
The subject of test [2] is KYNA content in the rat brain. To be noted: cited from earlier work; for KYNA content in the rat brain: after drug administration.
The subject of the next test is animal models of ADPKD. To be noted: animal model of ADPKD, cited from earlier work.
Where [3] appears, read: pH 9.5, highest concentration tested 1 mM.
Where [4] appears, read: highest concentration tested 1 mM.

T2 sequence (Q64602 30-425): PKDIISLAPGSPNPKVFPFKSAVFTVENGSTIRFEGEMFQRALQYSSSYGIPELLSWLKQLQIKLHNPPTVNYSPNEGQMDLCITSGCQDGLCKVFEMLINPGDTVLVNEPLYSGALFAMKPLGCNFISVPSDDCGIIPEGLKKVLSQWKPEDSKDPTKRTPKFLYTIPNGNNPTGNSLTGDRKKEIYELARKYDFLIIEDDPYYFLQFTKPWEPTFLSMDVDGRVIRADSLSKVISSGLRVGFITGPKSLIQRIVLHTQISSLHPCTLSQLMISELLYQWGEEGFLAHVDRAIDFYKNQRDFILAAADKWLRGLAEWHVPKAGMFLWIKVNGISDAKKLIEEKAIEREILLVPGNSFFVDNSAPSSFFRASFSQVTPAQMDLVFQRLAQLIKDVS

Turning to `CN1C(C(=O)Nc2ccccn2)=C(O)c2ccccc2S1(=O)=O` [piroxicam], the IC50 on KAT I (setting [3]) and at KAT II (setting [4]) was above 1000 µM in each case.

With `CC(C)Cc1ccc(C(C)C(=O)O)cc1` (stereo not shown) [ibuprofen], the “effect on KAT I activity” value at KAT I is recorded as “did not affect the activity of KAT I”. For the same compound, the IC50 (in test [1] (setting [4]); at KAT II (setting [4])) was above 1000 µM in each case. Further, the “serum KYNA concentration” value with serum KYNA concentration is given as “increases serum KYNA concentration”.

Regarding `COc1ccc2cc([C@H](C)C(=O)O)ccc2c1` [naproxen, naproxen sodium], the IC50 (usually the point on the concentration scale where inhibition reaches its midpoint) on KAT I (setting [3]) is above 1000 µM; in test [1], 464 µM; at KAT II (2 h, 37 °C), 504 µM.

In the case of `Cc1cnc(NC(=O)C2=C(O)c3ccccc3S(=O)(=O)N2C)s1` [meloxicam, meloxicam sodium salt hydrate], the IC50 at KAT I (pH 9.5, 2 h, 37 °C) is 310 µM; in test [1] (setting [4]), above 1000 µM; on KAT II (2 h, 37 °C) it was 155 µM. Also, in test [2], the “KYNA content in the rat brain” value is listed as “Decreased KYNA content”.

Turning to `Cc1ccc(-c2cc(C(F)(F)F)nn2-c2ccc(S(N)(=O)=O)cc2)cc1` [celecoxib], the cysts volume result in the test with animal models of ADPKD (selective COX-2 blockade) is recorded as “decrease cysts volume”.

Consider `CC1=C(CC(=O)O)c2cc(F)ccc2/C1=C\c1ccc([S+](C)[O-])cc1` (stereo not shown) [sulindac], for which the cysts volume entry in the test with animal models of ADPKD (nonselective COX inhibition) is listed as “decrease cysts volume”.

`O=C(O)Cc1ccccc1Nc1c(Cl)cccc1Cl` [diclofenac, diclofenac sodium salt]: the IC50 was above 1000 µM on KAT I (setting [3]); 230 µM in test [1]; 191 µM on KAT II (2 h, 37 °C). Moreover, the “decrease of KYNA synthesis” value in test [1] (concentration not given) was found to be 64%. Further, the “KYNA content in the rat brain” value in test [2] is recorded as “elevated KYNA levels”. The “KYNA concentration in the rat brain” value in test [2] (following tail ischemia) is given as “increased KYNA concentration”.

As to `CC(=O)Nc1ccc(O)cc1` [acetaminophen], the “effect on KAT I activity” value at KAT I is “did not affect the activity of KAT I”. Also, in test [1] (1 μM-1 mM drug), the “effect on KYNA production” value was “did not change KYNA production”. Moreover, the “effect on KAT II activity” value on KAT II (1 μM-1 mM drug) is “not shown to inhibit KAT II activity”.

Regarding `COc1ccc2c(c1)c(CC(=O)O)c(C)n2C(=O)c1ccc(Cl)cc1` [indomethacin], the IC50 at KAT I (pH 9.5, 2 h, 37 °C) came to 503 µM; in test [1] it was 246 µM; on KAT II (2 h, 37 °C) it was 420 µM. Besides, the “KYNA content in the rat brain” value in test [2] is given as “elevated KYNA levels”.

For the compound `CS(=O)(=O)Nc1ccc([N+](=O)[O-])cc1Oc1ccccc1` [nimesulide], the IC50 was 128 µM at KAT I (pH 9.5, 2 h, 37 °C); 473 µM in test [1]; above 1000 µM on KAT II (setting [4]).

Consider `CC(=O)Oc1ccccc1C(=O)O` [acetylsalicylic acid], for which the “effect on KAT I activity” value on KAT I was “did not affect the activity of KAT I”. The IC50 (in test [1] (setting [4]); on KAT II (setting [4])) was above 1000 µM throughout.
